These results are taken from patent US8044070B2, “Heteroaryloxy nitrogenous saturated heterocyclic derivative” (MSD K.K., priority 2003, dated 2011).

In general, bioavailability refers to the share of a dose that reaches the circulation, judged against a reference dose that is usually intravenous. Low values mean poor availability, high ones good availability.

The nature of data set [1]: Brain/cerebrospinal fluid migration test. It counts as in vivo, rat. To be noted: SD male rats, 2 hours after oral administration (10 mg/kg); for concentration at 2 h: rat. From the text:
A test compound was orally or intravenously administered to SD male rats (7 to 10 weeks-age, 200 to 400 g), and while anesthetized with ether for a predetermined period of time, the whole blood was collected from the abdominal aorta of the rats, using a heparin-processed syringe. Next, the brain skin was cut opened and a 30 G needle for dental use was pierced between the cervical vertebrae and inserted into the subarachnoid cavity. Through the tube connected with the dental 30 G needle, from 50 to 100 μl of the cerebrospinal fluid was collected into a 1-ml syringe, and then the brain was taken out. The blood sample was centrifuged (4° C., 6000 rpm, 10 minutes), and the resulting plasma was stirred with ethanol (including an internal standard substance) added thereto in an amount of 3 times the plasma. 2 ml of water was added to the brain sample and homogenized, and a part of the resulting mixture was stirred with ethanol (including an internal standard substance) added thereto in an amount of 3 times the mixture. These samples were kept at −20° C. for 20 minutes, and then centrifuged (4° C., 12,000 g, 10 minutes), and the resulting supernatant was analyzed through LC/MS/MS. According to a relative calibration curve method, the concentration of the test compound in the plasma, the brain and the cerebrospinal fluid was quantified.

Data set [2] has as its target T1, histamine-3 receptor (Homo sapiens, UniProt Q9Y5N1).
T1 construct: expressed in transfected cells; host or cells: HEK293 and CHO-K1 (membrane specimen)
The data set is described as follows: Histamine analogue-binding inhibition test ([35S]GTPγS binding in presence of R-methylhistamine, SPA). In kind it is biochemical. The following applies: 20 nM R-methylhistamine, 25° C., 3 hours; read-out: IC50 (nM) to specific [35S]GTPγS binding. From the text: (§1) A cDNA sequence coding for a human histamine-3 receptor [see International Patent Application WO00/39164) was cloned with expression vectors pCR2.1, pEF1x (by Invitrogen) and pCI-neo (by Promega). The resulting expression vector was transfected into host cells, HEK293 and CHO-K1 (American Type Culture Collection), according to a cationic lipid process [see Proceedings of the National Academy of Sciences of the United States of America, Vol., 84, p. 7413 (1987)] to obtain histamine-3 receptor expression cells.
A membrane specimen prepared from the cells having expressed a histamine-3 receptor was incubated in an assay buffer (50 mM Tris buffer, 100 mM NaCl, 5 mM MgCl2, pH 7.4) along with a test compound, 20 nM R-methylhistamine (histamine analogue, by Sigma), 10 μM GDP (guanine-nucleotide diphosphate, by Sigma), […] [^35S] GTPγS (guanine-nucleotide triphosphate analogue, by Amersham) and SPA resin (wheatgerm agglutinin SPA beads, by Amersham) therein on a 96-well optiplate (by Packard) at 25° C. for 3 hours and then centrifuged at 3,000 rpm, and its activity was counted with Topcount (by Packard). The non-specific binding was determined in the presence of 10 μM GTPγS (by Sigma), and the 50% inhibitory concentration (IC50) of the test compound to specific N[^35S] GTPγS binding was calculated [see British Journal of Pharmacology, Vol. 135, p. 383 (2002)].

Data set [3] deals with T1, histamine-3 receptor. The data set is described as follows: Histamine analogue-binding inhibition test ([3H]N-α-methylhistamine binding to membrane specimen). The following applies: membrane of histamine-3 receptor expressing cells, 25° C., 2 hours; read-out: 50% inhibitory concentration (IC50) to specific N-α-methylhistamine binding.
Text: as §1
A membrane specimen prepared from the cells having expressed a histamine-3 receptor was incubated in an assay buffer (50 mM Tris buffer, pH 7.4) along with a test compound and 20,000 cpm of [^3H]-α-methylhistamine (by NEN) therein at 25° C. for 2 hours, and then filtered through a glass filter GF/C. This was washed with 50 mM Tris buffer (ph 7.4), and the radioactivity on the glass filter was measured. The non-specific binding was determined in the presence of 10 μM thioperamide (by SIGAM), and the 50% inhibitory concentration (IC50) of the test compound to specific N-α-methylhistamine binding was calculated [see Molecular Pharmacology, Vol. 55, p. 1101 (1999)].

Data set [4] is described as follows: Test for internal kinetics. In kind it is in vivo, rat. To be noted: SD male rats, oral or intravenous administration. On the procedure:
A test compound was orally or intravenously administered to SD male rats (7 to 10 weeks-age, 200 to 400 g) kept away from eating and drinking overnight, and using a heparinization capillary within a predetermined period of time, about 100 μl of the blood was collected from them via their tail vein. The blood was centrifuged (4° C., 6000 rpm, 10 minutes) to collect its plasma. Ethanol (including an internal standard substance) was added to the plasma in an amount of 3 times that of the plasma, and stirred, and left statically at −20° C. for 20 minutes, and then this was centrifuged (4° C., 10,000 rpm, 10 minutes). The supernatant was analyzed through LC/MS/MS, and the plasma concentration of the compound was quantified according to a relative calibration curve method.

Read-outs that look alike come from different tables or passages of the source.

T1 sequence (Q9Y5N1 whole entry): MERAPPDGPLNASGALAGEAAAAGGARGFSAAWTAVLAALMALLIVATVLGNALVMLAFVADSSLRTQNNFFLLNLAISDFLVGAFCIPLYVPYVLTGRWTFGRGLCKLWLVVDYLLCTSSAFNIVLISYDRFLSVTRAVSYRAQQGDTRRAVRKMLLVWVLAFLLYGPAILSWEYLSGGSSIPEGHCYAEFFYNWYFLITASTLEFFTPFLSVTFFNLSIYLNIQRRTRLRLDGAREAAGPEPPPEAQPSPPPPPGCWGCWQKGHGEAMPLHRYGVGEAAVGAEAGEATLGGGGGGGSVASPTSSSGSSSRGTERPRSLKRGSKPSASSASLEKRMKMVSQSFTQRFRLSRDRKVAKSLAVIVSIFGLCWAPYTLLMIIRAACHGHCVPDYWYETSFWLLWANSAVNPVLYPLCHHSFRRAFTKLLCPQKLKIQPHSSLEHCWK

Compound `N#Cc1ccc(-c2cnc(OC3CCN(C4CCCC4)CC3)nc2)cc1` [Example 1, 2-(1-cyclopentylpiperidin-4-yloxy)-5-(4-cyanophenyl)pyrimidine] gave a brain concentration in data set [1] of 6.18 nmol/g. Also, the concentration at 2 h was 128 nM in data set [1] (cerebrospinal fluid, read-out: cerebrospinal fluid concentration) and 540 nM in data set [1] (plasma, read-out: plasma concentration). Moreover, the IC50 amounted to 1.9 nM at histamine-3 receptor [2] and 15 nM on histamine-3 receptor [3]. The “half-value period in blood” value in data set [4] turned out to be 5.3 h. Moreover, in data set [4] (rat, plasma), the bioavailability was determined as 53%.
As to `O=C(c1ccc(-c2cnc(OC3CCN(C4CCCC4)CC3)nc2)cc1)N1CCCC1` [Example 11, 2-(1-cyclopentylpiperidin-4-yloxy)-5-{4-(pyrrolidin-1-ylcarbonyl)phenyl}pyrimidine], on histamine-3 receptor [2], the IC50 amounted to 1.2 nM.
On to `FC(F)(F)c1ccc(-c2cnc(OC3CCN(C4CCCC4)CC3)nc2)cc1` [Example 23, 2-(1-cyclopentylpiperidin-4-yloxy)-5-(4-trifluoromethylphenyl)pyrimidine], for which the IC50 on histamine-3 receptor [2] was found to be 1.4 nM.
Same read-out and setting: under `CS(=O)(=O)c1ccc(-c2cnc(OC3CCN(C4CCCC4)CC3)nc2)cc1` [Example 37, 2-(1-cyclopentylpiperidin-4-yloxy)-5-{4-(methylsulfonyl)phenyl}pyrimidine] stands 1.3 nM.
Still for that read-out and setting: then `c1cn2cnnc2cc1-c1cnc(OC2CCN(C3CCCC3)CC2)nc1` [Example 60, 2-(1-cyclopentylpiperidin-4-yloxy)-5-(1,2,4-triazolo[4,3,a]pyridin-7-yl)pyrimidine], with 1.2 nM; and `Cn1cc(-c2ccc(OC3CCN(C4CCC4)CC3)nc2)ccc1=O` [Example 65, 2-(1-cyclobutylpiperidin-4-yloxy)-5-{1-methyl-1H-pyridin-2-on-5-yl}pyridine], with 0.45 nM; and `CC(C)N1CCC(Oc2ccc(-c3ccc(=O)n(C)c3)cn2)CC1` [Example 68, 2-(1-isopropylpiperidin-4-yloxy)-5-{1-methyl-1H-pyridin-2-on-5-yl}pyridine], with 1.4 nM.
